Common to all, as to format: functional
The test system of one assay is Candida albicans. Put plainly: Antifungal activity against Candida albicans NBRC1594 assessed as reduction in fungal growth incubated for 24 hrs by CLSI broth microdilution method.
For a further assay, the system named is Cryptococcus neoformans. Description: Antifungal activity against Cryptococcus neoformans ATCC 14116 assessed as reduction in fungal growth incubated for 72 hrs by CLSI broth microdilution method.
The subject of a further assay is Aspergillus fumigatus. Description: Antifungal activity against Aspergillus fumigatus NBRC 96918 assessed as reduction in fungal growth incubated for 48 hrs by CLSI broth microdilution method. (In broth dilution the organism is exposed to a series of concentrations in liquid medium.)
In a further assay the test system is Rhizopus arrhizus. Put plainly: Antifungal activity against Rhizopus oryzae NBRC 31005 assessed as reduction in fungal growth incubated for 24 hrs by CLSI broth microdilution method.

Data on one compound can be found in ChEMBL document CHEMBL4665731, “Antifungal trichothecene sesquiterpenes obtained from the culture broth of marine-derived Trichoderma cf. brevicompactum and their structure-activity relationship” (2020).

Structures are written as SMILES. Values after ≈ are worked out from the molar mass of the structure shown.

On to `C[C@@H]1[C@H](O)[C@@H](C)/C=C/C=C/C=C/C=C/C=C/C=C/C=C/[C@H](O[C@@H]2O[C@H](C)[C@@H](O)[C@H](N)[C@@H]2O)C[C@@H]2O[C@](O)(C[C@@H](O)C[C@@H](O)[C@H](O)CC[C@@H](O)C[C@@H](O)CC(=O)O[C@H]1C)C[C@H](O)[C@H]2C(=O)O` [AMPHOTERICIN B], for which the MIC90 in the assay on Candida albicans was 0.5 µg/mL (≈ 0.541 µM); in the assay on Cryptococcus neoformans, 1 µg/mL (≈ 1.08 µM); in the assay with Aspergillus fumigatus, 2 µg/mL (≈ 2.16 µM); with Rhizopus arrhizus, 1 µg/mL (≈ 1.08 µM).

One may read the MIC90 as an inhibitory concentration at the 90% level, which refers to growth in some studies and to a panel of isolates in others.
